Data as given in patent US11780893B2, “Kv1.3 blockers” (Zealand Pharma A/S, priority 2019, dated 2023).
Read-outs that look alike come from different tables or passages of the source. Bridge positions count the residues as written; N and C are the ends. Square brackets hold non-standard residues; d marks the D form. Peptide text beside a SMILES is read from it. Nle = CCCC[C@H](N)C(=O)O

Experiments:
[1] = target: T1, human Kv1.3 voltage-gated K+ channel (Homo sapiens, UniProt P22001); assay: cell-based; settings: inhibition of thallium flux, CHO-DUKX cells with human Kv1.3; read-out: IC50
T1 construct: host or cells: CHO-DUKX

Kv1.3 = target: T2, Kv1.3 (Homo sapiens, UniProt P22001); assay: cell-based; settings: CHO cells, whole-cell patch clamp; read-out: Potency IC50 (nM) Kv1.3
T2 construct: expressed in transfected cells; host or cells: Chinese Hamster Ovary (CHO)

Rat whole blood = Rat whole blood (Rattus norvegicus, UniProt P15384)
[2] = inhibition of IL-17A release, thapsigargin, 24 Hr, at least 2 replicates

Chain of Rat whole blood (P15384 whole entry): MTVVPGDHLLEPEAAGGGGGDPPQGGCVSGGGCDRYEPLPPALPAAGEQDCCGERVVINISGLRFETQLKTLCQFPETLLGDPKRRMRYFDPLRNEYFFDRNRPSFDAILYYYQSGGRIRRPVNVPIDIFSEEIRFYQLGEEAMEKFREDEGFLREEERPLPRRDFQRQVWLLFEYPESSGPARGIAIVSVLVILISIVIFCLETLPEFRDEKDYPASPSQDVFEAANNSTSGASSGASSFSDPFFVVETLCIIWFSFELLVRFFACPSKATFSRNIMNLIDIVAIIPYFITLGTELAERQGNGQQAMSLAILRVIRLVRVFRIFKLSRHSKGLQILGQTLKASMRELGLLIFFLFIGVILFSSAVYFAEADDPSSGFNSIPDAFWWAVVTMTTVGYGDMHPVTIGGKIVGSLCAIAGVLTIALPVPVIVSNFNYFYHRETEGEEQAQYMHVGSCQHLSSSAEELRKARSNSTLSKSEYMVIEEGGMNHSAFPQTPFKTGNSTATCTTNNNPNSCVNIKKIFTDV
T2 sequence (P22001 whole entry): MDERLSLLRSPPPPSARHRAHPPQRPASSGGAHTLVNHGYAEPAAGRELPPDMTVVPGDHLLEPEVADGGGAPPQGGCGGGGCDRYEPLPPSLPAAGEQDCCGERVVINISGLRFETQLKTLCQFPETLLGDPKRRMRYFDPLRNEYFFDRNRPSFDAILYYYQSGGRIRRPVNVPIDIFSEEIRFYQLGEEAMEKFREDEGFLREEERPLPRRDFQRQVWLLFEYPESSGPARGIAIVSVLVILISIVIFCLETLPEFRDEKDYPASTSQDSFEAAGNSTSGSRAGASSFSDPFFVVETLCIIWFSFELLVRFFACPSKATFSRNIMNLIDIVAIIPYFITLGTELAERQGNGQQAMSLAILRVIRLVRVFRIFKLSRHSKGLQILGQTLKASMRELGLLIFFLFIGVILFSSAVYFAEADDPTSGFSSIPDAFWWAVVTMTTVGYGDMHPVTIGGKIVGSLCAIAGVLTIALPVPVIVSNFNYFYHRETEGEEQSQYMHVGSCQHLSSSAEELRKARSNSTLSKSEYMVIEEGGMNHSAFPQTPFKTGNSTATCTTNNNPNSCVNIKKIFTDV
T1 sequence (P22001 whole entry): as above

SMILES | IC50 [1] [nM] | IC50 (Kv1.3) [nM] | IC50 (Rat whole blood) [nM] | IC50 (Rat whole blood; [2]) [nM]
CCCC[C@H](NC(=O)[C@H](CC(=O)O)NC(=O)[C@H](CCCC)NC(=O)[C@@H](N)CC(N)=O)C(=O)N[C@@H](CCCNC(=N)N)C(=O)N[C@H]1CSSC[C@@H]2NC(=O)[C@H](CCCCN)NC(=O)CNC(=O)[C@H](Cc3ccccc3)NC(=O)[C@H]([C@@H](C)CC)NC(=O)[C@H](CO)NC(=O)CNC(=O)[C@H]([C@@H](C)CC)NC(=O)[C@H](C)NC(=O)[C@H](CCCCN)NC(=O)[C@H](CC(C)C)NC(=O)[C@@H]3CSSC[C@@H](C(=O)N[C@@H](Cc4ccc(O)cc4)C(=O)N4CCC[C@H]4C(=O)N[C@@H](CCCNC(=N)N)C(N)=O)NC(=O)[C@H](CCCCN)NC(=O)[C@H](CSSC[C@H](NC(=O)[C@H](CCC(=O)O)NC(=O)[C@H](C(C)C)NC(=O)[C@H](CO)NC(=O)[C@H](C)NC(=O)[C@H](CO)NC1=O)C(=O)N[C@@H](CCCCN)C(=O)N[C@@H](CCC(N)=O)C(=O)N[C@@H](CCCCN)C(=O)N3)NC(=O)[C@H](CCCCN)NC(=O)[C@H](CCCCN)NC(=O)[C@H](CC(N)=O)NC(=O)[C@H](CCSC)NC2=O [Compound 39] (H-N[Nle]D[Nle]RCSASVECKQKCLKAIGSIFGKCMNKKCKCYPR-NH2; disulfide 6-27, 12-32, 16-34) | 0.11 | 0.15 |  | 
CC[C@H](C)[C@@H]1NC(=O)[C@H](C)NC(=O)[C@H](CCCCN)NC(=O)[C@H](Cc2ccc(O)cc2)NC(=O)[C@@H]2CSSC[C@@H](C(=O)N[C@@H](Cc3ccc(O)cc3)C(=O)N3CCC[C@H]3C(=O)N[C@@H](CCCNC(=N)N)C(N)=O)NC(=O)[C@H](CCCCN)NC(=O)[C@@H]3CSSC[C@H](NC(=O)[C@H](CCC(=O)O)NC(=O)[C@H](C(C)C)NC(=O)[C@H](CO)NC(=O)[C@H](C)NC(=O)[C@H](CO)NC(=O)[C@@H](NC(=O)[C@H](CCCNC(=N)N)NC(=O)[C@H](CCSC)NC(=O)[C@H](CC(=O)O)NC(=O)[C@H](CCSC)NC(=O)[C@@H](N)CC(N)=O)CSSC[C@H](NC(=O)[C@H](CCCCN)NC(=O)CNC(=O)[C@H](Cc4ccccc4)NC(=O)[C@H]([C@@H](C)CC)NC(=O)[C@H](CO)NC(=O)CNC1=O)C(=O)N[C@@H](CCSC)C(=O)N[C@@H](CC(N)=O)C(=O)N[C@@H](CCCCN)C(=O)N[C@@H](CCCCN)C(=O)N3)C(=O)N[C@@H](CCCCN)C(=O)N[C@@H](CCC(N)=O)C(=O)N[C@@H](CCCCN)C(=O)N2 [Compound 50] (H-NMDMRCSASVECKQKCYKAIGSIFGKCMNKKCKCYPR-NH2; disulfide 6-27, 12-32, 16-34) | 0.16 | 0.27 |  | 
CC[C@H](C)[C@@H]1NC(=O)[C@H](C)NC(=O)[C@H](CCCCN)NC(=O)[C@H](CCCNC(=N)N)NC(=O)[C@@H]2CSSC[C@@H](C(=O)N[C@@H](Cc3ccc(O)cc3)C(=O)N3CCC[C@H]3C(=O)N[C@@H](CCCNC(=N)N)C(N)=O)NC(=O)[C@H](CCCCN)NC(=O)[C@@H]3CSSC[C@H](NC(=O)[C@H](CCC(=O)O)NC(=O)[C@H](C(C)C)NC(=O)[C@H](CO)NC(=O)[C@H](C)NC(=O)[C@H](CO)NC(=O)[C@@H](NC(=O)[C@H](CCCNC(=N)N)NC(=O)[C@H](CCSC)NC(=O)[C@H](CC(=O)O)NC(=O)[C@H](CCSC)NC(=O)[C@@H](N)CC(N)=O)CSSC[C@H](NC(=O)[C@H](CCCCN)NC(=O)CNC(=O)[C@H](Cc4ccccc4)NC(=O)[C@H]([C@@H](C)CC)NC(=O)[C@H](CO)NC(=O)CNC1=O)C(=O)N[C@@H](CCSC)C(=O)N[C@@H](CC(N)=O)C(=O)N[C@@H](CCCCN)C(=O)N[C@@H](CCCCN)C(=O)N3)C(=O)N[C@@H](CCCCN)C(=O)N[C@@H](CCC(N)=O)C(=O)N[C@@H](CCCCN)C(=O)N2 [Compound 51] (H-NMDMRCSASVECKQKCRKAIGSIFGKCMNKKCKCYPR-NH2; disulfide 6-27, 12-32, 16-34) | 0.11 | 0.25 |  | 
CC[C@H](C)[C@@H]1NC(=O)[C@H](Cc2ccc(O)cc2)NC(=O)[C@H](CCCCN)NC(=O)[C@H](CC(C)C)NC(=O)[C@@H]2CSSC[C@@H](C(=O)N[C@@H](Cc3ccc(O)cc3)C(=O)N3CCC[C@H]3C(=O)N[C@@H](CCCNC(=N)N)C(N)=O)NC(=O)[C@H](CCCCN)NC(=O)[C@@H]3CSSC[C@H](NC(=O)[C@H](CCC(=O)O)NC(=O)[C@H](C(C)C)NC(=O)[C@H](CO)NC(=O)[C@H](C)NC(=O)[C@H](CO)NC(=O)[C@@H](NC(=O)[C@H](CCCNC(=N)N)NC(=O)[C@H](CCSC)NC(=O)[C@H](CC(=O)O)NC(=O)[C@H](CCSC)NC(=O)[C@@H](N)CC(N)=O)CSSC[C@H](NC(=O)[C@H](CCCCN)NC(=O)CNC(=O)[C@H](Cc4ccccc4)NC(=O)[C@H]([C@@H](C)CC)NC(=O)[C@H](CO)NC(=O)CNC1=O)C(=O)N[C@@H](CCSC)C(=O)N[C@@H](CC(N)=O)C(=O)N[C@@H](CCCCN)C(=O)N[C@@H](CCCCN)C(=O)N3)C(=O)N[C@@H](CCCCN)C(=O)N[C@@H](CCC(N)=O)C(=O)N[C@@H](CCCCN)C(=O)N2 [Compound 55] (H-NMDMRCSASVECKQKCLKYIGSIFGKCMNKKCKCYPR-NH2; disulfide 6-27, 12-32, 16-34) | 0.12 | 0.12 |  | 
CCCC[C@@H]1NC(=O)[C@@H]2CSSC[C@H](NC(=O)[C@H](CCCNC(=N)N)NC(=O)[C@H](CC(C)C)NC(C)=O)C(=O)N[C@@H](CO)C(=O)N[C@@H](C)C(=O)N[C@@H](CO)C(=O)N[C@@H](C(C)C)C(=O)N[C@@H](CCC(=O)O)C(=O)N[C@H]3CSSC[C@H](NC(=O)[C@H](CCCCN)NC(=O)[C@H](CCCCN)NC(=O)[C@H](CC(N)=O)NC1=O)C(=O)N[C@@H](CCCCN)C(=O)N[C@H](C(=O)N[C@@H](Cc1ccc(O)cc1)C(=O)N1CCC[C@H]1C(=O)N[C@@H](CCCNC(=N)N)C(=O)O)CSSC[C@H](NC(=O)[C@H](CCCCN)NC(=O)[C@H](CCC(N)=O)NC(=O)[C@H](CCCCN)NC3=O)C(=O)N[C@@H](CC(C)C)C(=O)N[C@@H](C)C(=O)N[C@@H](C)C(=O)N[C@@H]([C@@H](C)CC)C(=O)NCC(=O)N[C@@H](CO)C(=O)N[C@@H]([C@@H](C)CC)C(=O)N[C@@H](Cc1ccccc1)C(=O)NCC(=O)N[C@@H](CCCCN)C(=O)N2 [Compound 115] (Ac-LRCSASVECKQKCLAAIGSIFGKC[Nle]NKKCKCYPR-OH; disulfide 3-24, 9-29, 13-31) | 0.31 |  | ≤ 1 | 0.9
CC[C@H](C)[C@@H]1NC(=O)[C@H](C)NC(=O)[C@H](C)NC(=O)[C@H](CC(C)C)NC(=O)[C@@H]2CSSC[C@@H](C(=O)N[C@@H](Cc3ccc(O)cc3)C(=O)N3CCC[C@H]3C(=O)N[C@@H](CCCNC(=N)N)C(=O)O)NC(=O)[C@H](CCCCN)NC(=O)[C@@H]3CSSC[C@H](NC(=O)[C@H](CCC(=O)O)NC(=O)[C@H](C(C)C)NC(=O)[C@H](CO)NC(=O)[C@H](C)NC(=O)[C@H](CO)NC(=O)[C@@H](NC(=O)[C@H](CCCNC(=N)N)NC(=O)[C@H](CC(C)C)NC(C)=O)CSSC[C@H](NC(=O)[C@H](CCCCN)NC(=O)CNC(=O)[C@H](Cc4ccccc4)NC(=O)[C@H]([C@@H](C)CC)NC(=O)[C@H](CO)NC(=O)CNC1=O)C(=O)N[C@@H](CCSC)C(=O)N[C@@H](CC(N)=O)C(=O)N[C@@H](CCCCN)C(=O)N[C@@H](CCCCN)C(=O)N3)C(=O)N[C@@H](CCCCN)C(=O)N[C@@H](CCC(N)=O)C(=O)N[C@@H](CCCCN)C(=O)N2 [Compound 116] (Ac-LRCSASVECKQKCLAAIGSIFGKCMNKKCKCYPR-OH; disulfide 3-24, 9-29, 13-31) | 0.18 |  | ≤ 1 | 0.36
